In patent US10150772B2, “Crystalline forms of PARP inhibitors” (priority 2014, dated 2018):
Counter-ions that a name gives are not always drawn.

Tests used:
[1] = Dynamic vapor sorption (DVS), water sorption; type: physicochemical
Procedure: Dynamic Vapor Sorption (DVS):
DVS experiments have been carried out using the DVS-HT instrument (Surface Measurement Systems, London, UK). This instrument measures the uptake and loss of vapor gravimetrically using a recording ultra-microbalance with a mass resolution of ±0.1 μg. The vapor partial pressure (±1.0%) around the sample is controlled by mixing saturated and dry carrier gas streams using electronic mass flow controllers. The desired temperature is maintained at ±0.1° C. The samples (1-10 mg) were placed into the DVS-HT and DVS-1 instruments at the desired temperature.
The sample was loaded and unloaded at 40% RH and 25° C. (typical room conditions). A moisture sorption isotherm was performed as outlined below (2 scans giving 1 complete cycle). The software uses a least squares minimization procedure together with a model of the mass relaxation, to predict an asymptotic value. The measured mass equilibration value must be within 2% of that predicted by the software before proceeding to the next % RH value. The minimum equilibration time was set to 1 hour and the maximum to 4 hours.

[2] = Estimation of water solubility; type: physicochemical
Procedure: Estimation of Water Solubility: Ten mg portions of the salt forms to be studied were weighed into a standard 1.5 mL HPLC vial (32×11.6 mm). […] An estimation of solubility was based on the volume of water necessary to dissolve the known weight of sample.

[3] = type: physicochemical
Procedure: Identity, Assay, and Purity by HPLC
Testing was performed on a calibrated and validated Agilent 1200 Rapid Resolution High Performance Liquid Chromatography (HPLC) system designated LC-0430-AD or LC-418-1D. The system comprises a binary SL pump, degasser, high performance autosampler SL with a fraction collector, thermostated column compartment with a 2 valve column switcher, and a DAD SL detector. All standard solutions and samples were prepared in Class A glass volumetric flasks and were placed in autosampler vials. Standard weighings were done using a calibrated Mettler analytical balance. The sample preparations were centrifuged using an Eppendorf microcentrifuge. The primary chromatography data was acquired and integrated using Empower 2 software. Microsoft Office Excel 2003 was used for the calculation of results.
Solid State Stability of Salts at 40° C. and 75% Humidity:
Samples of the form to be studied (15-20 mg) were weighed into standard 1.5 mL HPLC vials (32×11.6 mm) and stored uncapped for 0, 7, 14 and 28 days in a 40° C. and 75% RH stability chamber. Samples were removed on the indicated day and capped. Measurements of XRPD, DSC, TGA and HPLC Identity by Purity and Assay measurements were completed on each time point sample.

[4] = initial, before 40° C. and 75% RH stability testing

COc1cccc2[nH]c3c4c(c5c(c3c12)C(=O)N(CN1CCN(C)CC1)C5=O)CCC4.O=C(O)C[C@H](O)C(=O)O [L-malate (2 Eq.)]
DVS ([1]; water sorption reversible or irreversible): Irreversible
Est. Water Solubility [2]: >100 mg/mL
COMPOUND B After 40/75 ([3]; after 40° C. and 75% RH stability testing): 1.2%
COMPOUND A Initial [3, 4]: 71.3%
COMPOUND B Initial [3, 4]: 0.2%
TGA ([3]; initial, comparison of salts): 0.1%

COc1cccc2[nH]c3c4c(c5c(c3c12)C(=O)N(CN1CCN(C)CC1)C5=O)CCC4 [Hydrochloride Salt, Form A]
DVS sorption behaviour (in words) ([1]; DVS, 25° C.): surface adsorption with limited bulk absorption throughout the entire RH range
Total uptake (moisture) ([1]; DVS, 25° C., entire RH range): ~2.25%
Stability to the test conditions (in words) ([3]; 40° C. and 75% RH, 28 day test period): relatively constant XRPD pattern
Compound A Assay value, change (in words) ([3]; 40° C. and 75% RH, after 28 days): decreasing to nearly half
